This is an account of results in patent publication US10308608B2, “Histone deacetylase inhibitors” (BIOMARIN PHARMACEUTICAL INC., priority 2015, dated 2019).

SMILES strings stand for the structures. Where a name gives a salt, the structure may show the parent alone.

The first data set deals with Frataxin (FXN) mRNA. The experiment in a line: Effect of HDAC inhibitors on frataxin (FXN) mRNA expression, qRT-PCR in compound-treated iPSC derived neuronal cells. It counts as cell-based. To be noted: compound concentration of 0.625 μM, 24 h incubation, dihydrochloride, 0.625 µM. The method in brief:
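iPSC-derived neuronal cells, differentiated 16 days without EGF/bFGF, treated with compound 24 h. FXN mRNA measured by one-step SYBR Green qRT-PCR; fold induction reported at 0.625 μM compound, binned A<1, 1<B<2, 2<C<3, 3<D<5, E>5.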
On the technique in general: Quantitative PCR measures a nucleic acid by following its amplification.
For `Nc1ccccc1NC(=O)c1ccc(OC2CCCN(CC3CCCCC3)CC2)cc1` (single isomer, unassigned) [Compound 40B, N-(2-aminophenyl)-4-((1-(cyclohexylmethyl)azepan-4-yl)oxy)benzamide dihydrochloride], the “FXN mRNA fold induction” value is “C (2<C<3)”.

Staying with this data set, now noted: iPSC, 24 h, compound concentration of 0.625 μM, 24 h incubation, read-out: FXN mRNA fold induction.
With `Nc1ccccc1NC(=O)c1ccc(O[C@@H]2CCN(C3COC3)C2)cc1` [Compound 130, (R)-N-(2-aminophenyl)-4-((1-(oxetan-3-yl)pyrrolidin-3-yl)oxy)benzamide], the fold induction at 0.625 µM lay in the range of 1 to 2.

Consider `Nc1ccccc1NC(=O)c1ccc(OC2CCN(CC3CC3)CC2)cc1` [Compound 1, N-(2-aminophenyl)-4-((1-(cyclopropylmethyl)piperidin-4-yl)oxy)benzamide], for which the fold induction at 0.625 µM is 1 to 2.

Consider `CC(C)(C)CN1CC[C@H](Nc2ccc(C(=O)Nc3ccccc3N)cc2)C1` [Compound 98, (S)-N-(2-aminophenyl)-4-((1-neopentylpyrrolidin-3-yl)amino)benzamide trihydrochloride], for which the fold induction at 0.625 µM fell in the range of 2 to 3. Turning to `CC(C)CN1CC[C@H](Nc2ccc(C(=O)Nc3ccccc3N)cc2)C1` [Compound 96, (S)-N-(2-aminophenyl)-4-((1-isobutylpyrrolidin-3-yl)amino)benzamide], the fold induction at 0.625 µM was in the range of 1 to 2. On to `Nc1ccccc1NC(=O)c1ccc(N[C@@H]2CCN(CC3CCCCC3)C2)cc1` [Compound 109, (R)-N-(2-aminophenyl)-4-((1-(cyclohexylmethyl)pyrrolidin-3-yl)amino)benzamide], for which the fold induction at 0.625 µM fell in the range of 2 to 3. As for `Nc1ccccc1NC(=O)c1ccc(OC2CNC2)cc1` [Compound 41, N-(2-aminophenyl)-4-(azetidin-3-yloxy)benzamide hydrochloride], the fold induction at 0.625 µM was 1 to 2. Regarding `Nc1ccccc1NC(=O)c1ccc(N[C@@H]2CCN(CC3CC3)C2)cc1` [Compound 107, (R)-N-(2-aminophenyl)-4-((1-(cyclopropylmethyl)pyrrolidin-3-yl)amino)benzamide trihydrochloride], the fold induction at 0.625 µM is 2 to 3. Regarding `CC1(CN2CC(Nc3ccc(C(=O)Nc4ccccc4N)cc3)C2)CC1` [Compound 92, N-(2-aminophenyl)-4-((1-((1-methylcyclopropyl)methyl)azetidin-3-yl)amino)benzamide], the fold induction at 0.625 µM lay in the range of 2 to 3.

For `Nc1ccccc1NC(=O)c1ccc(O[C@@H]2CCN(CC3CCCCC3)C2)cc1` [Compound 64, (R)-N-(2-aminophenyl)-4-((1-(cyclohexylmethyl)pyrrolidin-3-yl)oxy)benzamide dihydrochloride], the fold induction at 0.625 µM was 2 to 3. `Nc1ccccc1NC(=O)c1ccc(OC2CN(CC3CCCCC3)C2)cc1` [Compound 48, N-(2-aminophenyl)-4-((1-(cyclohexylmethyl)azetidin-3-yl)oxy)benzamide dihydrochloride]: the fold induction at 0.625 µM was 2 to 3. As for `Nc1ccccc1NC(=O)c1ccc(N[C@H]2CCCN(CC3CCCCC3)CC2)cc1` (single isomer, unassigned) [Compound 85B], the fold induction at 0.625 µM was 2 to 3. `CC1(CN2CC[C@@H](Oc3ccc(C(=O)Nc4ccccc4N)cc3)C2)CC1` [Compound 63, (R)-N-(2-aminophenyl)-4-((1-((1-methylcyclopropyl)methyl)pyrrolidin-3-yl)oxy)benzamide dihydrochloride]: the fold induction at 0.625 µM fell in the range of 2 to 3. For the molecule `CC(C)CN1CC[C@@H](Nc2ccc(C(=O)Nc3ccccc3N)cc2)C1` [Compound 104, (R)-N-(2-aminophenyl)-4-((1-isobutylpyrrolidin-3-yl)amino)benzamide trihydrochloride], the fold induction at 0.625 µM lay in the range of 2 to 3.

As for `Nc1ccccc1NC(=O)c1ccc(OC2CCCN(CC3CCCCC3)CC2)cc1` (single isomer, unassigned) [Compound 40A, N-(2-aminophenyl)-4-((1-(cyclohexylmethyl)azepan-4-yl)oxy)benzamide dihydrochloride], the fold induction at 0.625 µM was 1 to 2. With `CC1(CN2CC[C@@H](Nc3ccc(C(=O)Nc4ccccc4N)cc3)C2)CC1` [Compound 108, (R)-N-(2-aminophenyl)-4-((1-((1-methylcyclopropyl)methyl)pyrrolidin-3-yl)amino)benzamide], the fold induction at 0.625 µM lay within 2 to 3. Turning to `Nc1ccccc1NC(=O)c1ccc(OC2CCCN(C3CC3)CC2)cc1` (stereo not drawn) [Compound 123, N-(2-aminophenyl)-4-((1-cyclopropylazepan-4-yl)oxy)benzamide benzamide dihydrochloride], the fold induction at 0.625 µM is 1 to 2.

For `Nc1ccccc1NC(=O)c1ccc(O[C@@H]2CCNC2)cc1` [Compound 57, (R)-N-(2-aminophenyl)-4-(pyrrolidin-3-yloxy)benzamide hydrochloride], the fold induction at 0.625 µM lay in the range of 2 to 3. `CN1CC[C@H](Oc2ccc(C(=O)Nc3ccccc3N)cc2)C1` [Compound 50, (S)-N-(2-aminophenyl)-4-((1-methylpyrrolidin-3-yl)oxy)benzamide dihydrochloride]: the fold induction at 0.625 µM lay within 2 to 3. Take `CC(C)CN1CCCC(Nc2ccc(C(=O)Nc3ccccc3N)cc2)CC1` (stereo not drawn) [Compound 80, N-(2-aminophenyl)-4-((1-isobutylazepan-4-yl)amino)benzamide]: the fold induction at 0.625 µM is 2 to 3. Still for that read-out and setting: to `CN1CC[C@@H](Nc2ccc(C(=O)Nc3ccccc3N)cc2)C1` [Compound 103, (R)-N-(2-aminophenyl)-4-((1-methylpyrrolidin-3-yl)amino)benzamide] belongs 1 to 2.

The same data set, now with this note: iPSC, 24 h, read-out: FXN mRNA fold induction, compound concentration of 0.625 μM, 24 h incubation.
Consider `CCN(c1ccc(C(=O)Nc2ccccc2N)cc1)C1CCN(CC(C)(C)O)CC1` [Compound 27, N-(2-aminophenyl)-4-(ethyl(1-(2-hydroxy-2-methylpropyl)piperidin-4-yl)amino)benzamide Trihydrochloride], for which the fold induction at 0.625 µM fell in the range of 2 to 3. Turning to `Nc1ccccc1NC(=O)c1ccc(NC2CC3CCC(C2)N3CC2CC2)cc1` (stereo not drawn) [Compound 120, N-(2-aminophenyl)-4-((8-(cyclopropylmethyl)-8-azabicyclo[3.2.1]octan-3-yl)amino)benzamide trihydrochloride], the fold induction at 0.625 µM fell in the range of 1 to 2. Regarding `CC(C)(O)CN1CCC(N(CC2CC2)c2ccc(C(=O)Nc3ccccc3N)cc2)CC1` [Compound 29, N-(2-aminophenyl)-4-((cyclopropylmethyl)(1-(2-hydroxy-2-methylpropyl)piperidin-4-yl)amino)benzamide Trihydrochloride], the fold induction at 0.625 µM was in the range of 1 to 2.

As to `CC(C)CN1C2CCC1CC(Oc1ccc(C(=O)Nc3ccccc3N)cc1)C2` (stereo not drawn) [Compound 72, N-(2-aminophenyl)-4-((8-isobutyl-8-azabicyclo[3.2.1]octan-3-yl)oxy)benzamide dihydrochloride], the fold induction at 0.625 µM was 1 to 2. Still for that read-out and setting: to `CC(C)(C)CN1C2CCC1CC(Nc1ccc(C(=O)Nc3ccccc3N)cc1)C2` (stereo not drawn) [Compound 119, N-(2-aminophenyl)-4-((8-neopentyl-8-azabicyclo[3.2.1]octan-3-yl)amino)benzamide] belongs 2 to 3.

As to `CC(C)(C)CN1C2CCC1CC(Oc1ccc(C(=O)Nc3ccccc3N)cc1)C2` (stereo not drawn) [Compound 74, N-(2-aminophenyl)-4-((8-neopentyl-8-azabicyclo[3.2.1]octan-3-yl)oxy)benzamide dihydrochloride], the fold induction at 0.625 µM fell in the range of 1 to 2.
